In patent US20130324535A1, “USE OF SIGMA LIGANDS IN BONE CANCER PAIN” (LABORATORIOS DEL DR. ESTEVE, S.A., priority 2010, published 2013):
Counter-ions that a name gives are not always drawn. Like-named read-outs stand apart in the source and are kept apart here.

Tests used:
[1] = system: tumor-induced bone pain (tactile allodynia)
Description: This study was conducted in two parts; the first phase determined the optimal dose level for the second phase.

sigma receptor = conditions: Sigma 1 and Sigma 2; cited from earlier work

CN1CC[C@]23c4c5ccc(O)c4O[C@H]2[C@@H](O)C=C[C@H]3[C@H]1C5 [morphine]
mitigation of allodynia (von Frey test) ([1]; Phase 1, morphine 1.25 mg/kg given at day 18): sub threshold dose | mitigation of allodynia (von Frey test) ([1]; Phase 1, morphine 2.5 mg/kg given at day 18): able to mitigate allodynia with statistical significance | mitigation of allodynia (von Frey test) ([1]; Phase 1, morphine 5 mg/kg given at day 18): able to mitigate allodynia with statistical significance | effect on allodynia 24 hours after administration ([1]; Phase 2, morphine 5 mg/kg (positive control), 24 hours after administration): no significant effect

Cc1cc(OCCN2CCOCC2)nn1-c1ccc2ccccc2c1 [example 1, 4-{2-[5-Methyl-1-(naphthalen-2-yl)-1H-pyrazol-3-yloxy]ethyl}morpholine hydrochloride]
mitigation of allodynia (von Frey test) ([1]; Phase 2, example 1 alone 40 mg/kg, 30 minutes after administration): not at 40 mg/kg | mitigation of allodynia (von Frey test) ([1]; Phase 2, example 1 alone 80 mg/kg, 30 minutes after administration): statistically significant mitigation of allodynia

CC(C)=CCN1CCC2(C)c3cc(O)ccc3CC1C2C (stereo not shown) [pentazocine]
affinity of the sigma receptors (sigma receptor): very high affinity
